# From patent US9580416B2, “Inhibitors of Bruton's tyrosine kinase” (PHARMACYCLICS LLC, priority 2014, dated 2017)
# Key:
# Format in all cases: biochemical
# Btk = Btk (Homo sapiens, UniProt Q06187); test: Btk kinase activity, TR-FRET assay; conditions: read-out: Btk (IC50)
# Procedure, shortened: (§1)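 Enzyme (Btk 0.5 nM; Lck 6 nM) reacted 1 h with inhibitor, ATP at Km and biotin-peptide substrate in pH 7.4 buffer, 10% DMSO. Phosphopeptide detected by Eu-p-Tyr100 antibody plus streptavidin-APC (665/615 nm). IC50 calculated from fitted Ki(app) via ATP/Km correction plus half total enzyme.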
# Lck = Lck (Homo sapiens, UniProt P06239); test: Lck kinase activity, TR-FRET assay; conditions: read-out: LCK (IC50)
# Procedure, shortened: as §1
# EGFR = EGFR (Homo sapiens, UniProt P00533); test: Inhibition of a panel of kinases, in vitro HotSpot kinase assay: EGFR
# Protocol: (§2) The degree of inhibition of a panel of kinases is determined using the in vitro HotSpot kinase assay (purified enzymes, ^33P-ATP, an appropriate substrate and 1 uM ATP).
# JAK3 = biological target: T1, JAK3 (Homo sapiens, UniProt P52333); test: Inhibition of a panel of kinases, in vitro HotSpot kinase assay: JAK3
# T1 sequence (P52333 1-1124): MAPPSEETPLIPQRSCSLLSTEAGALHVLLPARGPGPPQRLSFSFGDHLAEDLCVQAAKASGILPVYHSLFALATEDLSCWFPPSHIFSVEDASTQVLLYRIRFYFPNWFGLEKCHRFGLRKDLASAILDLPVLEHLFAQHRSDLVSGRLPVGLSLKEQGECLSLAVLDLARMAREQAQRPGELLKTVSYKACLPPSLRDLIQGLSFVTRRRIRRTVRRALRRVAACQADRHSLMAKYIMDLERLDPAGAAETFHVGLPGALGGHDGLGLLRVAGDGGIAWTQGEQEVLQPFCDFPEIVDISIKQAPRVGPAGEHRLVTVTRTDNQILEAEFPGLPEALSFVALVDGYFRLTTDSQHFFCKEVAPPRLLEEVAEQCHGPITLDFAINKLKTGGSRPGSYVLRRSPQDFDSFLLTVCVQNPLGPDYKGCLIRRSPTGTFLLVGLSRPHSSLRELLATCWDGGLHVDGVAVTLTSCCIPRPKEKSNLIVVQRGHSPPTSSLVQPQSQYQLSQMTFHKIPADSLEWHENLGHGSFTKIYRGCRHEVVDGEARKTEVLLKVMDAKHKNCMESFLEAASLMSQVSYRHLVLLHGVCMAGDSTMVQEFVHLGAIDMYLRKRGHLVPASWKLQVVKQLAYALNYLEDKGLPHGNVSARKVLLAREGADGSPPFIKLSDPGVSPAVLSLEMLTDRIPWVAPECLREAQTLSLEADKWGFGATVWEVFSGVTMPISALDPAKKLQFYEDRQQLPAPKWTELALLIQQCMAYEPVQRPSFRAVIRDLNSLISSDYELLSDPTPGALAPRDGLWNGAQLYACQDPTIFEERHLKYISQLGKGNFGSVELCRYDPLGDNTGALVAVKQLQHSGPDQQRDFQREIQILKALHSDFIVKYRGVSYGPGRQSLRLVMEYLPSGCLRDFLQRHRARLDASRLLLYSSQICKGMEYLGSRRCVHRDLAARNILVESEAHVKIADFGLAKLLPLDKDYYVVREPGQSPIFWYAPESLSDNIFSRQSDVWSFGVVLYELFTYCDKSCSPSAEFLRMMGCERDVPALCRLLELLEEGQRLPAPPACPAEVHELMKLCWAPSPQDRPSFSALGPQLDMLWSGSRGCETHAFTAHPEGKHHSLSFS
# Protocol: as §2
# Chain of EGFR (P00533 25-1210): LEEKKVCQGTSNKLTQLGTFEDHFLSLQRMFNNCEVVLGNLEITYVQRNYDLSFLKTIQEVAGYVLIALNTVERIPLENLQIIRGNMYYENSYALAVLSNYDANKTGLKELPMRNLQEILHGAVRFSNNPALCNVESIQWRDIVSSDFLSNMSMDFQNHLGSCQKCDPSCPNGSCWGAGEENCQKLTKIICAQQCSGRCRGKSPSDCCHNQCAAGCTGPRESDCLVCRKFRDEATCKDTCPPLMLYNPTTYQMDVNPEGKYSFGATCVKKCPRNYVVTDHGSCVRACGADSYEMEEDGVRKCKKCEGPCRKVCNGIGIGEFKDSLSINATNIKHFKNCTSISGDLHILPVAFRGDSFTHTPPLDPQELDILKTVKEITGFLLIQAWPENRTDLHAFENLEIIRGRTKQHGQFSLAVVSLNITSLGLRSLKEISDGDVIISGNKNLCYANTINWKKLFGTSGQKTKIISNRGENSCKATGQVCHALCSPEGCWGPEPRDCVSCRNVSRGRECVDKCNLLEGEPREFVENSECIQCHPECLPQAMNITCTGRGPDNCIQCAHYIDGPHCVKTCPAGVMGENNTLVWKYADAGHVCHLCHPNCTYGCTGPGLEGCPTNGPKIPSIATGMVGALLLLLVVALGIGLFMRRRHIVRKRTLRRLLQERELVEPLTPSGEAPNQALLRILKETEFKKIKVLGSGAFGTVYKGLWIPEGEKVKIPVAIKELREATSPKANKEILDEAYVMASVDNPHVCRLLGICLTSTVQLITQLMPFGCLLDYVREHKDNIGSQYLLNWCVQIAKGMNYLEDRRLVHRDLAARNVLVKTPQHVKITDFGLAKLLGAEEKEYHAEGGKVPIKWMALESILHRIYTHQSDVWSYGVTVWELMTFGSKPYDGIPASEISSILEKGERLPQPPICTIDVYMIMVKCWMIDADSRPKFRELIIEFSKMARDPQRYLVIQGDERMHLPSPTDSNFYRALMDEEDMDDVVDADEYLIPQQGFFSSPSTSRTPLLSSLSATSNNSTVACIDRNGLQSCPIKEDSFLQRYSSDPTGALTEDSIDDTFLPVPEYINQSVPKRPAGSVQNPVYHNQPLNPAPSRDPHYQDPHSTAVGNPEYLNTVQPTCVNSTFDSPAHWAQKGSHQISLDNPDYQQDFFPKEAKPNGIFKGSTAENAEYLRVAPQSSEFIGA
# Chain of Btk (Q06187 whole entry): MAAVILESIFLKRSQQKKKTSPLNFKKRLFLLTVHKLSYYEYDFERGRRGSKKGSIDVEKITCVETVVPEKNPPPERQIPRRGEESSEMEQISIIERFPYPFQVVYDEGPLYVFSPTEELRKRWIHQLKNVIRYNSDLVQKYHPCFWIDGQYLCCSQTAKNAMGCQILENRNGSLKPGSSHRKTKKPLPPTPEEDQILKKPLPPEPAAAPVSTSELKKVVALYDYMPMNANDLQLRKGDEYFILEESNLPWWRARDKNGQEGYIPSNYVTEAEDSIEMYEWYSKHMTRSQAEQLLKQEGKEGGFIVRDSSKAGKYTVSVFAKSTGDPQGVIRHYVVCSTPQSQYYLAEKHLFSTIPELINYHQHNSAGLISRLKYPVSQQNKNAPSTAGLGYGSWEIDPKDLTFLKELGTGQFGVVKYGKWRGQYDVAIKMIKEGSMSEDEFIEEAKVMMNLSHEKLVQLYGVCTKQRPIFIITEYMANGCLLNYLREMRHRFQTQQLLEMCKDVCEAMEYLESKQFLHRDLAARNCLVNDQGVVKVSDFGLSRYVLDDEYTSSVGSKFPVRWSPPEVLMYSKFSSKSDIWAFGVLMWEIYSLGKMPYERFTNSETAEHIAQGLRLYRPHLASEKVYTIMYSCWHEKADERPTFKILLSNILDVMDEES
# Chain of Lck (P06239 whole entry, species assumed): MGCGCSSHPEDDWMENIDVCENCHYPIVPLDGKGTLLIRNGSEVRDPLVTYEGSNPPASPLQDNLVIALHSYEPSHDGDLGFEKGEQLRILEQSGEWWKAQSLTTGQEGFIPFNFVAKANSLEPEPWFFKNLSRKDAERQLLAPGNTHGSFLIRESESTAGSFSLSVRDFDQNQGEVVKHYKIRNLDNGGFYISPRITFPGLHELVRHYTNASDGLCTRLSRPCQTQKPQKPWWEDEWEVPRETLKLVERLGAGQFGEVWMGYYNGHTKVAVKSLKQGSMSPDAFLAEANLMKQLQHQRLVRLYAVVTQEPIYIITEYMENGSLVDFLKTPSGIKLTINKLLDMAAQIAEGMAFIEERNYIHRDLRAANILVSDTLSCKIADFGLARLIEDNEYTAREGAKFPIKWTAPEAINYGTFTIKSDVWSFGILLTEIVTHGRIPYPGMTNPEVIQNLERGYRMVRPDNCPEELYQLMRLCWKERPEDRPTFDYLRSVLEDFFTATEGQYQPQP
IC50 (Btk) [nM],IC50 (Lck) [nM],IC50 (EGFR) [nM],IC50 (JAK3) [nM],Structure (SMILES)
100 to 1000,> 10000,> 10000,> 10000,"CCNC(=O)N[C@H]1CCCN(c2n[nH]c3nccc(Oc4ccc(C(=O)Nc5cc(C(F)(F)F)ccn5)cc4)c23)C1 [compound 234, 4-({3-[(3S)-3-[(ethylcarbamoyl)amino]piperidin-1-yl]-1H-pyrazolo[3,4-b]pyridin-4-yl}oxy)-N-[4-(trifluoromethyl)pyridin-2-yl]benzamide]"
< 100,1000 to 10000,1000 to 10000,1000 to 10000,Cc1cnc(NC(=O)c2ccc(Oc3ccnc4[nH]nc(N[C@@H]5CCCN(C(=O)/C=C/CN(C)C6CC6)C5)c34)cc2)s1 [compound 142]
100 to 1000,> 10000,100 to 1000,1000 to 10000,C=CC(=O)N1CCC[C@@H](Nc2n[nH]c3nccc(Oc4cccc(-c5ncc(C)s5)c4)c23)C1 [compound 148]
< 100,1000 to 10000,< 100,< 100,C=CC(=O)N1CCC[C@@H](Nc2n[nH]c3nccc(Oc4cccc(C(=O)Nc5ncc(C)s5)c4)c23)C1 [compound 149]
100 to 1000,100 to 1000,> 10000,> 10000,"Cc1ccnc(NC(=O)c2ccc(Oc3ccnc4[nH]nc(NC5CCN(C(=O)C6(C)CCN(C)CC6)CC5)c34)cc2)c1 [compound 284, 4-(3-(1-(1,4-dimethylpiperidine-4-carbonyl)piperidin-4-ylamino)-1H-pyrazolo[3,4-b]pyridin-4-yloxy)-N-(4-methylpyridin-2-yl)benzamide]"
100 to 1000,> 10000,100 to 1000,< 100,C=CC(=O)N1CCC[C@@H](Nc2n[nH]c3nccc(Oc4ccc(C(=O)Nc5nnc(C)s5)cc4)c23)C1 [compound 187]
> 10000,> 10000,> 10000,> 10000,"CCC(=O)N1CCC[C@@H](Nc2n[nH]c3nccc(Oc4ccc(-c5nc6cccc(C)c6o5)cc4)c23)C1 [compound 219, 1-[(3R)-3-({4-[4-(7-methyl-1,3-benzoxazol-2-yl)phenoxy]-1H-pyrazolo[3,4-b]pyridin-3-yl}amino)piperidin-1-yl]propan-1-one]"
100 to 1000,> 10000,> 10000,> 10000,"CN1CCc2sc(NC(=O)c3ccc(Oc4ccnc5[nH]nc(N[C@@H]6CCCN(C(=O)/C=C/CN(C)C7CC7)C6)c45)cc3)nc2C1 [compound 137, 4-[(3-{[(3R)-1-[(2E)-4-[cyclopropyl(methyl)amino]but-2-enoyl]piperidin-3-yl]amino}-1H-pyrazolo[3,4-b]pyridin-4-yl)oxy]-N-{5-methyl-4H,5H,6H,7H-[1,3]thiazol[4,5-c]pyridin-2-yl}benzamide]"
< 100,100 to 1000,100 to 1000,> 10000,"CN1CCC(C(=O)N2CC[C@@H](Nc3n[nH]c4nccc(Oc5ccc(C(=O)Nc6cc(C(F)(F)F)ccn6)cc5)c34)C2)CC1 [compound 199, 4-[(3-{[1-(1-methylpiperidin-4-carbonyl)pyrrolidin-3-yl]amino}-1H-pyrazolo[3,4-b]pyridin-4-yl)oxy]-N-[4-(trifluoromethyl)pyridin-2-yl]benzamide]"
100 to 1000,> 10000,1000 to 10000,1000 to 10000,Cc1csc(NC(=O)c2ccc(Oc3ccnc4[nH]nc(N[C@@H]5CCCN(C(=O)/C=C/CN(C)C6CC6)C5)c34)cc2)n1 [compound 139]
< 100,1000 to 10000,> 10000,> 10000,"Cc1cnc(NC(=O)c2ccc(Oc3ccnc4[nH]nc(N[C@@H]5CCN(C(=O)CCCN(C)C)C5)c34)cc2)s1 [compound 202, 4-[(3-{[(3R)-1-[4-(dimethylamino)butanoyl]pyrrolidin-3-yl]amino}-1H-pyrazolo[3,4-b]pyridin-4-yl)oxy]-N-(5-methyl-1,3-thiazol-2-yl)benzamide]"
< 100,100 to 1000,100 to 1000,> 10000,"CCC(=O)N1CCC[C@@H](Nc2n[nH]c3nccc(Oc4ccc(C(=O)Nc5cc(C(F)(F)F)ccn5)cc4)c23)C1 [compound 225, 4-[(3-{[(3R)-1-propanoylpiperidin-3-yl]amino}-1H-pyrazolo[3,4-b]pyridin-4-yl)oxy]-N-[4-(trifluoromethyl)pyridin-2-yl]benzamide]"
< 100,< 100,< 100,> 10000,"COCCN(C)C/C=C/C(=O)N1CC[C@@H](Nc2n[nH]c3nccc(Oc4ccc(Oc5ccccc5)cc4)c23)C1 [compound 9, (2E)-4-[(2-methoxyethyl)(methyl)amino]-1-[(3R)-3-{[4-(4-phenoxyphenoxy)-1H-pyrazolo[3,4-b]pyridin-3-yl]amino}pyrrolidin-1-yl]but-2-en-1-one]"
100 to 1000,> 10000,> 10000,> 10000,"CN(C)CCCC(=O)N[C@@H]1CCCN(c2n[nH]c3nccc(Oc4ccc(C(=O)Nc5cc(C(F)(F)F)ccn5)cc4)c23)C1 [compound 230, 4-({3-[(3R)-3-[4-(dimethylamino)butanamido]piperidin-1-yl]-1H-pyrazolo[3,4-b]pyridin-4-yl}oxy)-N-[4-(trifluoromethyl)pyridin-2-yl]benzamide]"
< 100,100 to 1000,1000 to 10000,> 10000,"Cc1ccnc(NC(=O)c2ccc(Oc3ccnc4[nH]nc(N[C@@H]5CCCN(C(=O)N(C)C)C5)c34)cc2)c1 [compound 106, (3R)-N,N-dimethyl-3-[(4-{4-[(4-methylpyridin-2-yl)carbamoyl]phenoxy}-1H-pyrazolo[3,4-b]pyridin-3-yl)amino]piperidine-1-carboxamide]"
100 to 1000,> 10000,1000 to 10000,100 to 1000,C=CC(=O)N1CCC[C@@H](Nc2n[nH]c3nccc(O[C@H]4CC[C@H](C(=O)Nc5ncc(C)s5)CC4)c23)C1 [compound 144]
< 100,1000 to 10000,1000 to 10000,> 10000,CC#CC(=O)N1CC[C@@H](Nc2n[nH]c3nccc(Oc4ccc(C(=O)Nc5ncc(C)s5)cc4)c23)C1 [compound 181]
< 100,100 to 1000,1000 to 10000,> 10000,"CCOC(=O)N1CCC[C@@H](Nc2n[nH]c3nccc(Oc4ccc(C(=O)Nc5cc(C)ccn5)cc4)c23)C1 [compound 108, ethyl (3R)-3-[(4-{4-[(4-methylpyridin-2-yl)carbamoyl]phenoxy}-1H-pyrazolo[3,4-b]pyridin-3-yl)amino]piperidine-1-carboxalate]"
< 100,100 to 1000,1000 to 10000,> 10000,"Cc1ccnc(NC(=O)c2ccc(Oc3ccnc4[nH]nc(N[C@@H]5CCCN(C(=O)[C@@H]6CCCO6)C5)c34)cc2)c1 (single isomer, unassigned) [compound 94]"
< 100,1000 to 10000,> 10000,> 10000,"Cc1ccnc(NC(=O)c2ccc(Oc3ccnc4[nH]nc(N[C@@H]5CCCN(C(=O)C6CCCC6)C5)c34)cc2)c1 [compound 107, 4-[(3-{[(3R)-1-cyclopentanecarbonylpiperidin-3-yl]amino}-1H-pyrazolo[3,4-b]pyridin-4-yl)oxy]-N-(4-methylpyridin-2-yl)benzamide]"
< 100,1000 to 10000,> 10000,> 10000,"Cc1ccnc(NC(=O)c2ccc(Oc3ccnc4[nH]nc(N[C@@H]5CCCN(C(=O)c6ccccc6)C5)c34)cc2)c1 [compound 109, 4-[(3-{[(3R)-1-benzoylpiperidin-3-yl]amino}-1H-pyrazolo[3,4-b]pyridin-4-yl)oxy]-N-(4-methylpyridin-2-yl)benzamide]"
